Source: patent US12661335B2, “Halogenated xanthene-containing topical anti-gram-positive bacterial ophthalmic composition and method” (Provectus Pharmatech, Inc., priority 2021, dated 2026)
Converted amounts (≈) assume the structure as drawn. Where two headings read alike, the source gives them in different places.

Key:
[1] = tested on: biofilms of S. aureus 6508™; assay: Biofilm eradication assay; format: cell-based, Staphylococcus aureus; conditions: linezolid at 600 μg/mL
Experimental: 62:394-399 (2013)], and was used as a control.
Linezolid was applied as a positive control at very high concentration of 600 μg/mL (>100×MIC for the planktonic cells) in biofilm assays reported by Kurosu et al., Molecules 27:322 (2022).

[2] = tested on: Mycobacterium smagmatis 607 ™; assay: MIC, broth dilution method, dark condition; format: cell-based, Mycobacterium smegmatis; conditions: for MIC: read-out: MIC (μg/mL) against M. smegmatis 607 ™ (wild-type)
[3] = tested on: M. smegmatis 607 ™ (RB mutant); format: cell-based, Mycobacterium smegmatis; conditions: dark condition; triplicated

`CC(=O)NC[C@H]1CN(c2ccc(N3CCOCC3)c(F)c2)C(=O)O1` [linezolid, reference compound] was tested, and the “biofilm eradication efficacy of positive control compared with RB” value [1] was “the same level of efficacy”.
In the case of `NNC(=O)c1ccncc1` [Isoniazid (INH), Isoniazid], the MIC ([2]; dark condition, triplicated) is reported as 1.56 µg/mL (≈ 11.4 µM).
For `NCC[C@H](O)C(=O)N[C@@H]1C[C@H](N)[C@@H](O[C@H]2O[C@H](CN)[C@@H](O)[C@H](O)[C@H]2O)[C@H](O)[C@H]1O[C@H]1O[C@H](CO)[C@@H](O)[C@H](N)[C@H]1O` [Amikacin], the MIC ([2]; dark condition, triplicated) was 0.78 µg/mL (≈ 1.33 µM).
In the case of `NC[C@H]1O[C@@H](O[C@H]([C@H]2O[C@@H](n3ccc(=O)[nH]c3=O)[C@H](O)[C@@H]2O)[C@H](NCCCC(=O)NCc2ccc(N3CCC(Oc4ccc(OC(F)(F)F)cc4)CC3)cc2)C(N)=O)[C@H](O)[C@@H]1O` [APPB, aminouridyl phenoxypiperidinylbenzyl butanamide], the “MIC (μg/mL) against M. smegmatis 607 ™ (wild-type)” value ([2]; dark condition, triplicated) is reported as 0.20 µg/mL (≈ 0.227 µM) and the “MIC (μg/mL) against M. smegmatis 607 ™ (RB mutant)” value [3] is reported as 0.20 µg/mL (≈ 0.227 µM).
In the case of Capreomycin, the “MIC (μg/mL) against M. smegmatis 607 ™ (wild-type)” value ([2]; dark condition, triplicated) is reported as 3.13 µg/mL and the “MIC (μg/mL) against M. smegmatis 607 ™ (RB mutant)” value [3] is reported as 3.13 µg/mL.
With `CCc1cc(C(N)=S)ccn1` [Ethionamide (ETH), Ethionamide] the MIC [2] was 12.5 µg/mL (≈ 75.2 µM).
In the case of `CO[C@H]1/C=C/O[C@@]2(C)Oc3c(C)c(O)c4c(O)c(c(/C=N/N5CCN(C)CC5)c(O)c4c3C2=O)NC(=O)/C(C)=C\C=C\[C@H](C)[C@H](O)[C@@H](C)[C@@H](O)[C@@H](C)[C@H](OC(C)=O)[C@@H]1C` [Rifampicin], the MIC [2] is reported as 1.56 µg/mL (≈ 1.9 µM).
